Some test systems named below: HL-60(TB) leukemia; HOP-92 NSCLC; MALME-3M melanoma; NCI-H226 lung; NCI-H460 lung; NCI-H522 lung; OVCAR-8 ovarian; UACC-62 melanoma.
Holding throughout (assay): inhibition of tumour cell growth, NCI panel, 48 h

Each structure is given as a SMILES string.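 Cells were grown in 96-well plates and exposed to each compound for 48 hours at five concentrations; endpoints were interpolated linearly between bracketing concentrations, or set to the highest concentration if not reached. GI50 is the concentration that inhibits growth by half. TGI: concentration producing complete growth inhibition.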

As to `COC(=O)CCC(=O)c1c(C)[nH]c(/C=C2\N=C(c3ccc[nH]3)C=C2OC)c1C`, the GI50 in the test with HL-60(TB) leukemia is 0.602 µM; in the test on HOP-92 NSCLC, 0.486 µM; in the test with MALME-3M melanoma it was 1.49 µM; in the test on NCI-H226 lung, 1.08 µM; with NCI-H460 lung it was 6.86 µM; in the test on NCI-H522 lung, 1.13 µM. Besides, the values for the GI50 in the test on OVCAR-8 ovarian and with UACC-62 melanoma were 0.754 µM and 1.37 µM, respectively. For the same compound, the TGI with HL-60(TB) leukemia is 2.83 µM; in the test with HOP-92 NSCLC, 1.55 µM; in the test on MALME-3M melanoma, 3.47 µM; with NCI-H226 lung, 3.27 µM; in the test on NCI-H460 lung it was 40.9 µM; with NCI-H522 lung, 2.86 µM. Moreover, the TGI was 2.23 µM in the test on OVCAR-8 ovarian and 3.49 µM in the test with UACC-62 melanoma.
In the case of `Cn1c(COC(=O)N2CCCCC2)nc2c(N3CCOCC3)nc(-c3ccccc3)nc21`, the GI50 in the test with HL-60(TB) leukemia is 0.592 µM; in the test on HOP-92 NSCLC, 0.492 µM; in the test with MALME-3M melanoma it was 1.39 µM; in the test with NCI-H226 lung it was 1.59 µM; in the test with NCI-H460 lung, 1.58 µM; with NCI-H522 lung, 0.406 µM. The GI50 in the test with OVCAR-8 ovarian is 1.03 µM; in the test on UACC-62 melanoma, 1.27 µM. In addition, the TGI with HL-60(TB) leukemia turned out to be 2.44 µM; in the test with HOP-92 NSCLC, 1.93 µM; in the test with MALME-3M melanoma, 2.72 µM; with NCI-H226 lung, 3.62 µM; in the test with NCI-H460 lung it was 3.27 µM; in the test on NCI-H522 lung it was 1.76 µM. Also, the TGI is 2.57 µM in the test on OVCAR-8 ovarian and 2.54 µM with UACC-62 melanoma.
As to `COc1ccc2[nH]cc(-c3nc(-c4cn(C)c5ccncc45)cs3)c2c1`, the GI50 is 1.9 µM in the test on HL-60(TB) leukemia; 1.9 µM with HOP-92 NSCLC; 2.11 µM in the test on MALME-3M melanoma; 18.3 µM in the test with NCI-H226 lung; 1.97 µM in the test on NCI-H460 lung; 1.74 µM in the test on NCI-H522 lung. Moreover, the GI50 was 2.19 µM in the test on OVCAR-8 ovarian and 18.5 µM in the test with UACC-62 melanoma. For the same compound, the TGI was 4.12 µM with HL-60(TB) leukemia; 3.63 µM with HOP-92 NSCLC; 3.65 µM with MALME-3M melanoma; 45.9 µM in the test on NCI-H226 lung; 3.67 µM with NCI-H460 lung; 3.52 µM in the test with NCI-H522 lung. Also, the TGI in the test on OVCAR-8 ovarian turned out to be 4.94 µM; in the test on UACC-62 melanoma, 37.5 µM.
Regarding `ClCCN(CCCl)c1ccc(-n2cnc3c(Cl)ncnc32)cc1`, the GI50 in the test on HL-60(TB) leukemia was 2.5 µM; in the test on HOP-92 NSCLC it was 10.9 µM; in the test on MALME-3M melanoma, 2.17 µM; in the test with NCI-H226 lung it was 13.3 µM; in the test with NCI-H460 lung it was 2.14 µM; in the test with NCI-H522 lung, 3.84 µM. The results for the GI50 in the test with OVCAR-8 ovarian and with UACC-62 melanoma were 2.37 µM and 1.81 µM, respectively. For the same compound, the TGI in the test on HL-60(TB) leukemia was determined as 6.58 µM; with HOP-92 NSCLC it was 26.1 µM; in the test with MALME-3M melanoma, 4.41 µM; in the test with NCI-H226 lung, 27.7 µM; in the test with NCI-H460 lung, 4.88 µM; in the test with NCI-H522 lung, 14.9 µM. For the same compound, the TGI with OVCAR-8 ovarian came out at 5.38 µM; in the test with UACC-62 melanoma, 3.35 µM.
`COCCOC(=O)C1=C(C)NC2=C(C(=O)CC(c3ccccc3OC)C2)C1c1cccc(O)c1` (stereo not drawn): the GI50 in the test on HL-60(TB) leukemia is 3.2 µM; in the test with HOP-92 NSCLC, 1.04 µM; in the test with MALME-3M melanoma, 13.9 µM; in the test with NCI-H226 lung, 8.64 µM; in the test with NCI-H460 lung, 15.5 µM; in the test with NCI-H522 lung, 6.47 µM. Moreover, the GI50 in the test with OVCAR-8 ovarian is 11.3 µM; in the test with UACC-62 melanoma, 4.51 µM. The TGI turned out to be 36 µM in the test on HL-60(TB) leukemia; 15.4 µM in the test with HOP-92 NSCLC; 47.6 µM in the test with MALME-3M melanoma; 35.7 µM in the test with NCI-H226 lung; 42.9 µM in the test on NCI-H460 lung; 33.6 µM in the test on NCI-H522 lung. Further, the TGI with OVCAR-8 ovarian was 34.9 µM; in the test with UACC-62 melanoma, 29.3 µM.
In the case of `CN1CCN(c2ccc3nc(-c4cc(C(C)(C)C)c(O)c(C(C)(C)C)c4)[nH]c3c2)CC1`, the GI50 is 2.22 µM in the test on HL-60(TB) leukemia; 1.82 µM in the test with HOP-92 NSCLC; 1.55 µM with MALME-3M melanoma; 14.7 µM with NCI-H226 lung; 1.99 µM with NCI-H460 lung; 2.11 µM in the test on NCI-H522 lung. Besides, the GI50 in the test on OVCAR-8 ovarian is 5 µM; in the test on UACC-62 melanoma, 1.87 µM. The TGI was found to be 4.52 µM with HL-60(TB) leukemia; 6.4 µM in the test with HOP-92 NSCLC; 2.95 µM in the test on MALME-3M melanoma; 32.4 µM in the test on NCI-H226 lung; 3.7 µM with NCI-H460 lung; 4.33 µM in the test with NCI-H522 lung. Further, the TGI with OVCAR-8 ovarian turned out to be 19.1 µM; in the test with UACC-62 melanoma, 3.38 µM.
As to `CCC(Sc1nnc2c3ccccc3n(CC)c2n1)C(=O)Nc1ccccc1OC` (stereo not drawn), the GI50 in the test with HL-60(TB) leukemia was 3.02 µM; with HOP-92 NSCLC it was 65.5 µM; in the test on MALME-3M melanoma, more than 100 µM; with NCI-H226 lung it was 53.6 µM; in the test with NCI-H460 lung it was more than 100 µM; in the test with NCI-H522 lung, more than 100 µM. Besides, the GI50 with OVCAR-8 ovarian and with UACC-62 melanoma was more than 100 µM in each case. Further, the TGI in the test on HL-60(TB) leukemia was 6.91 µM; with HOP-92 NSCLC, more than 100 µM; with MALME-3M melanoma, more than 100 µM; in the test on NCI-H226 lung it was more than 100 µM; with NCI-H460 lung, more than 100 µM; in the test with NCI-H522 lung it was more than 100 µM. In addition, the TGI in the test with OVCAR-8 ovarian and in the test with UACC-62 melanoma was more than 100 µM each time.
With `O=C(Nc1ccc(Br)cc1)Nc1n[nH]c2ccccc12`, the GI50 was 18.7 µM in the test on HL-60(TB) leukemia; more than 86.3 µM in the test with HOP-92 NSCLC; more than 19.7 µM in the test on MALME-3M melanoma; more than 91 µM in the test on NCI-H226 lung; 11.7 µM with NCI-H460 lung; 55 µM in the test on NCI-H522 lung. The figures for the GI50 with OVCAR-8 ovarian and with UACC-62 melanoma were 71.2 µM and more than 100 µM, respectively. Moreover, the TGI is more than 90 µM in the test on HL-60(TB) leukemia; more than 100 µM with HOP-92 NSCLC; more than 100 µM in the test with MALME-3M melanoma; more than 100 µM with NCI-H226 lung; more than 100 µM with NCI-H460 lung; more than 100 µM with NCI-H522 lung. In addition, the TGI in the test with OVCAR-8 ovarian and with UACC-62 melanoma was more than 100 µM each time.
With `COc1cccc(/C=N\Nc2ccc([N+](=O)[O-])cn2)c1O`, the GI50 with HL-60(TB) leukemia is 3.13 µM; with HOP-92 NSCLC, 2.8 µM; in the test with MALME-3M melanoma it was 4.11 µM; in the test with NCI-H226 lung, 3.72 µM; with NCI-H460 lung, 2.05 µM; in the test on NCI-H522 lung, 3.34 µM. The values for the GI50 with OVCAR-8 ovarian and in the test with UACC-62 melanoma were 2.55 µM and 2.47 µM, respectively. Moreover, the TGI worked out at 17.7 µM in the test on HL-60(TB) leukemia; 9.44 µM in the test on HOP-92 NSCLC; 36 µM in the test with MALME-3M melanoma; 26.2 µM in the test with NCI-H226 lung; 11 µM in the test on NCI-H460 lung; 18.4 µM in the test with NCI-H522 lung. Besides, the values for the TGI in the test with OVCAR-8 ovarian and in the test on UACC-62 melanoma were 15.6 µM and 8.9 µM, respectively.
In the case of `CC(C)(C)c1ccc([I+]c2ccc(C(C)(C)C)cc2)cc1`, the GI50 was 0.55 µM in the test with HL-60(TB) leukemia; 1.25 µM in the test with HOP-92 NSCLC; 0.545 µM in the test with MALME-3M melanoma; 1.29 µM in the test on NCI-H226 lung; 1.66 µM with NCI-H460 lung; 1.39 µM in the test on NCI-H522 lung. For the same compound, the GI50 with OVCAR-8 ovarian is 1.44 µM; with UACC-62 melanoma, 0.69 µM. For the same compound, the TGI worked out at 2.46 µM with HL-60(TB) leukemia; 3.5 µM in the test on HOP-92 NSCLC; 2.01 µM with MALME-3M melanoma; 5.32 µM in the test on NCI-H226 lung; 4.16 µM in the test on NCI-H460 lung; 4.8 µM in the test on NCI-H522 lung. Further, the TGI amounted to 3.72 µM in the test on OVCAR-8 ovarian and 2.31 µM in the test with UACC-62 melanoma.
As to `CS(=O)(=O)CCNCc1ccc(-c2ccc3ncnc(Nc4ccc(OCc5cccc(C(F)(F)F)c5)cc4)c3c2)o1`, the GI50 was 4.96 µM in the test with HL-60(TB) leukemia; 2.6 µM with HOP-92 NSCLC; 5.28 µM in the test on MALME-3M melanoma; more than 16.3 µM in the test with NCI-H226 lung; 5.31 µM in the test with NCI-H460 lung; 4.8 µM in the test on NCI-H522 lung. Further, the GI50 in the test on OVCAR-8 ovarian is 6.91 µM; in the test with UACC-62 melanoma it was 5.11 µM. For the same compound, the TGI in the test with HL-60(TB) leukemia is 10.9 µM; in the test on HOP-92 NSCLC, 7.81 µM; with MALME-3M melanoma, 10.5 µM; in the test on NCI-H226 lung, more than 25 µM; in the test with NCI-H460 lung, 11.8 µM; in the test on NCI-H522 lung, 8.91 µM. Besides, the TGI in the test on OVCAR-8 ovarian is more than 21.9 µM; in the test on UACC-62 melanoma, 9.66 µM.
On to `COC(CCP(=O)(c1ccccc1)c1ccccc1)(C(=O)c1ccccc1)c1ccccc1` (stereo not drawn), for which the GI50 was 2.29 µM in the test with HL-60(TB) leukemia; 1.42 µM with HOP-92 NSCLC; 2.78 µM in the test with MALME-3M melanoma; 2.19 µM in the test with NCI-H226 lung; 3.43 µM in the test on NCI-H460 lung; 4.71 µM in the test with NCI-H522 lung. For the same compound, the GI50 was 7.95 µM with OVCAR-8 ovarian and 2.39 µM in the test with UACC-62 melanoma. Besides, the TGI in the test with HL-60(TB) leukemia is more than 100 µM; in the test on HOP-92 NSCLC, 16.6 µM; with MALME-3M melanoma, 15.4 µM; with NCI-H226 lung, 15.7 µM; in the test with NCI-H460 lung, 14 µM; with NCI-H522 lung, 26 µM. The TGI was 27.8 µM with OVCAR-8 ovarian and 15.1 µM in the test with UACC-62 melanoma.
`C#C[C@]1(O)CC[C@H]2[C@@H]3CC=C4c5sc(N=C(N)N)nc5CC[C@]4(C)[C@H]3CC[C@@]21C`: the GI50 in the test with HL-60(TB) leukemia is 0.425 µM; in the test with HOP-92 NSCLC it was 0.842 µM; with MALME-3M melanoma, 0.338 µM; in the test on NCI-H226 lung it was 1.82 µM; in the test with NCI-H460 lung, 1.05 µM; in the test with NCI-H522 lung, 1.63 µM. Further, the figures for the GI50 in the test with OVCAR-8 ovarian and in the test with UACC-62 melanoma were 1.63 µM and 0.248 µM, respectively. Besides, the TGI amounted to 1.92 µM in the test with HL-60(TB) leukemia; 2.37 µM in the test on HOP-92 NSCLC; 1.19 µM in the test with MALME-3M melanoma; 3.97 µM with NCI-H226 lung; 2.5 µM in the test on NCI-H460 lung; 3.67 µM in the test on NCI-H522 lung. For the same compound, the TGI in the test on OVCAR-8 ovarian is 4.53 µM; with UACC-62 melanoma, 0.657 µM.

The record behind these values is PubChem BioAssay (NCI).
